# Measured values from patent US20110071124A1, “Compounds that Inhibit Production of sAPPB and AB and Uses Thereof” (The Trustees of Columbia University in the City of New York, priority 2008, published 2011).
# Legend:
# [1] = test system: Aβ40 in SY5Y-BACEGFP-SEAPAPPwt cells; test: Aβ40 ELISA (BioSource) in SY5Y-BACEGFP-SEAPAPPwt cells; format: cell-based; conditions: for IC50: SAR study, 8 concentrations (30-0.01 μM), SY5Y-BACEGFP-SEAPAPPwt cells
# Description: FIG. 11. 5 LDDN compounds reduce Aβ40 in SYSY-BACEGFP-SEAPAPPwt cells. sAPPβ and 24-hour cell viability was performed as described in Chapter 4.1. Aβ40 ELISA was performed using the Aβ40 ELISA kit (BioSource) according to the manufacturer's protocol. Cell culture media was collected after 6 hours of treatment with 4 concentrations (30, 10, 3, 0.3 μM) of compound and diluted 3:10 prior to loading onto the Aβ ELISA plate. The data points for sAPPβ and Aβ were roughly superimposed. Data points represent mean±s.d. of 3 determinations.
# FIG. 13. […] Compounds were tested in SY5Y-BACEGFP-SEAPAPPwt cells using the cell-based BACE1 assay. Select compounds were also investigated for Aβ-lowering effect using a commercial Aβ ELISA kit (BioSource). All compounds were tested at 8 concentrations (30, 10, 3, 1, 0.3, 0.1, 0.03, and 0.01 μM), and data points were analyzed with Origin software and fitted using a logistic model for IC50 determination.
# In other non-limiting embodiments, the effective amount of at least one compound of Formulas I-VII, and/or a compound depicted in FIG. 19, may be correlated with the compound's ability to reduce the level of Aβ40 in an in vitro assay that measures the level of Aβ40 produced in a cell line, for example, an SY5Y-BACEGFP-SEAPAPPwt cell line. In one non-limiting example, the level of Aβ40 expressed by the cell line may be measured through the use of an Aβ40 Elisa kit (Bio Source). In one embodiment, the assay comprises incubating the Aβ40 expressing cells with a compound of Formulas I-VII, and/or a compound depicted in FIG. 19, followed by assaying the concentration of Aβ40 in the cell media. In such an assay, a greater reduction of Aβ40 concentration in the cell media following incubation with a compound compared to a control cell line not contacted with the compound is correlative with the compound's therapeutic efficacy.
# The 15 LDDN compounds were tested in SY5Y-BACEGFP-SEAPAPPwt cells for their ability to reduce Aβ40 using a commercial Aβ40 ELISA kit (BioSource). SY5Y-BACEGFP-SEAPAPPwt cells were grown to 100% confluence and incubated with 4 concentrations of each compound (30, 10, 3, 0.3 μM). Cell culture media was collected after 6 hours of compound incubation and diluted 3:10 in sample diluent supplied in the Aβ40 ELISA kit. Aβ ELISA was performed according to the manufacturer's protocol. […] LDN-0057228 and LDN-0069630 are small molecules with ample chemical space for modification, and are thus considered good candidates for medicinal chemistry.
# 27 structural analogs of LDN-0057228 were synthesized and tested using the cell-based BACE1 assay in SY5Y-BACEGFP-SEAPAPPwt cells (FIG. 13). 4 analogs, in addition to the parent compound, were also assessed for Aβ40 lowering activity using a commercial Aβ kit (BioSource). Because LDN-0057228 resembles CNS monoamine transporter inhibitors, this analog series was given the designation “CNS.” LDN-0057228 gave an unexpectedly low potency (IC50˜20 μM for both sAPPβ and Aβ40 reduction) compared to the ˜7 μM potency obtained using the same compound in FIG. 8.
# [2] = test system: sAPPβ in Tg2576 primary cortical neurons; test: sAPPβ IP-Western in Tg2576 primary cortical neurons; format: cell-based, mouse; conditions: LDN-0057228 20 μM, CNS-2 5 μM, 24 hours
# Description: FIG. 17A-B. LDN-0057228 and CNS-2 reduce Aβ40 and sAPPβ in Tg2576 primary neurons. Primary cortical neurons were cultured from P0 APPsw transgenic pups (Tg2576). DIV-14 neurons were treated for 24 hours with LDN-0057228 or CNS-2 at the indicated concentrations. Data from two independent experiments were pooled. A) Media was collected for Aβ40 ELISA. Raw Aβ40 values were normalized to total protein to control for variations in plating density or any cytotoxicity resulting from the compounds. B) sAPPβ in the media was immunoprecipitated with sβsw antibody and visualized on Western blot with LN27.
# CNS-2 and LDN-0057228 were evaluated in the Tg2576 pup system (FIG. 17). Primary cortical neurons were harvested from P0 Tg2576 pups. Each pup yielded 3 wells on a 12-well plate at a plating density of 0.8×10^5 cells per well. After genotyping, neurons from each transgenic pup (APPsw +/−) were treated with DMSO, LDN-0057228 (20 μM), or CNS-2 (5 μM) at DIV-14 for 24 hours. Data from two independent experiments were pooled, representing primary neurons from 4 transgenic pups. LDN-0057228 (20 μM) reduced Aβ40 by 65% (p<0.001) and CNS-2 (5 μM) reduced Aβ40 by 60% (p=0.001) (FIG. 17A).
SMILES,"dose-dependent decrease in Aβ40 ([1]; 4 concentrations (30, 10, 3, 0.3 μM), 6 hours)",IC50 [1] [µM],sAPPβ as visualized by IP-Western [2]
Fc1ccc(C(OCCN2CCC[C@H]2CNCCc2ccccc2)c2ccc(F)cc2)cc1 [LDN-0057228],caused a dose-dependent decrease in Aβ40,~20,reduced sAPPβ
O=C(CCc1ccccc1)NC[C@@H]1CCCN1CCOC(c1ccc(F)cc1)c1ccc(F)cc1 [CNS-2],,5,reduced sAPPβ
